Laboratory results as given in patent US8097620B2, “Diazaquinolones that inhibit prolyl hydroxylase activity” (Amgen Inc., priority 2007, dated 2012).

target: HIF PHD2 (Homo sapiens, UniProt Q9GZT9); experiment: PHD2 inhibition assay (TR-FRET, VCB-Eu detection of hydroxylated P564-HIF1α peptide); format: biochemical; details: 2 nM PHD2, 100 nM P564-HIF1α peptide, 0.25 μM 2-oxoglutarate, 100 μM FeCl2, 2 mM ascorbic acid, pH 6
Method: Inhibition of HIF PHD2 activity was quantified utilizing the TR-FRET technology. HIF PHD2 catalyzes a hydroxyl modification on the proline residue of the P564-HIF1α peptide substrate (Biotin-[…] (SEQ ID NO: 7)) resulting in recognition and binding of the europylated Von Hippel-Lindau protein (pVHL), elongin B and elongin C heterotrimeric (VCB-Eu) complex.
The PHD2 inhibition assay was executed by addition of freshly dissolved FeCl2 to 178.57 μM (100 μM final concentration) in PHD2 Reaction Buffer containing 30 mM MES, pH 6, 10 mM NaCl, 0.25% Brij-35, 0.01% BSA, and 1% DMSO. 28 μL of the iron solution and 2 μL of inhibitor compounds serially diluted in 100% DMSO (5% DMSO final) were added to black polypropylene 96-well microtiter plates. To that, 10 μL of 10 nM PHD2 (2 nM final) was added to all wells of the plate except for the 8 wells of column 12 (LO control), and allowed to incubate at room temperature on the shaker for one hour. Column 6 was the HI control containing PHD2 enzyme and 5% DMSO vehicle, but no inhibitor compound. To initiate the PHD2 enzymatic reaction, 10 μL of a solution containing 500 nM P564-HIF1α peptide (100 nM final), 10 mM ascorbic acid (2 mM final), and 1.25 μM 2-oxoglutarate (α-ketoglutarate; 0.25 μM final) in PHD2 Reaction Buffer was added to all wells of the plate and allowed to incubate on the shaker at room temperature for one hour.
The reaction was terminated by addition of 25 μL TR-FRET Buffer (50 mM TRIS-HCl, pH 9, 100 mM NaCl, 0.05% BSA, and 0.5% Tween-20) containing 150 mM succinate (product inhibitor; 50 mM final), 75 nM streptavidin-APC (25 nM final), and 7.5 nM VCB-Eu (2.5 nM final). The TR-FRET detection reagents were placed on a shaker for 1 hour to reach binding equilibrium before reading on the Discovery platform (PerkinElmer). Europium is excited at 315 nm and phosphoresces at 615 nm with a large Stoke's shift. APC, in turn, emits at 655 nm upon excitation at 615 nm. The TR-FRET signal is measured as the ratio of the APC 655 nm signal divided by the internal europium reference 615 nm emission signal.
The POC (percentage of control) was determined by comparing the signal from hydroxylated peptide substrate in the enzyme reaction containing inhibitor compound with that from PHD2 enzyme with DMSO vehicle alone (HI control), and no enzyme (LO control). POC was calculated using the formula: % control (POC)=(cpd−average LO)/(average HI−average LO)*100. Data (consisting of POC and inhibitor concentration in μM) was fitted to a 4-parameter equation (y=A+((B−A)/(1+((x/C)^D))), where A is the minimum y (POC) value, B is the maximum y (POC), C is the x (cpd concentration) at the point of inflection and D is the slope factor) using a Levenburg-Marquardt non-linear regression algorithm.

HIF PHD2, sequence (Q9GZT9 whole entry): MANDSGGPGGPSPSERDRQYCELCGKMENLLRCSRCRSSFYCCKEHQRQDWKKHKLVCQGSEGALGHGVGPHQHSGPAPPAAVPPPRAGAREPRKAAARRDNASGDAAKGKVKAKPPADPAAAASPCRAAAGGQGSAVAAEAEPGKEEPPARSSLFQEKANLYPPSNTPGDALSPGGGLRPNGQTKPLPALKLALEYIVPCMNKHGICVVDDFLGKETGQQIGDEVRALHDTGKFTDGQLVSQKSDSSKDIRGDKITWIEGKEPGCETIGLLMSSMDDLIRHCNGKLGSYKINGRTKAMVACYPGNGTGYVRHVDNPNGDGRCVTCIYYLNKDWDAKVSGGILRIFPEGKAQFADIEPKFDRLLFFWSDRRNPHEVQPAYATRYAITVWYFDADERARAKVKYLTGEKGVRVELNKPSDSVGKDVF

Row | IC50 [nM] | SMILES
1 | 2.9 | Cn1c(=O)c(C(=O)NCC(=O)O)c(O)c2cnc(-c3ccccc3N3CCOCC3)nc21 [Example 28, 2-(5-hydroxy-8-methyl-2-(2-morpholinophenyl)-7-oxo-7,8-dihydropyrido[2,3-d]pyrimidine-6-carboxamido)acetic acid]
2 | 3.7 | Cn1c(=O)c(C(=O)NCC(=O)O)c(O)c2cnc(-c3ccc(N4CCOCC4)cc3)nc21 [Example 29, 2-(5-hydroxy-8-methyl-2-(4-morpholinophenyl)-7-oxo-7,8-dihydropyrido[2,3-d]pyrimidine-6-carboxamido)acetic acid]
3 | 5.3 | Cn1c(=O)c(C(=O)NCC(=O)O)c(O)c2cnc(-c3ccoc3)nc21 [Example 30, 2-(2-(furan-3-yl)-5-hydroxy-8-methyl-7-oxo-7,8-dihydropyrido[2,3-d]pyrimidine-6-carboxamido)acetic acid]
4 | 2.4 | COc1ccccc1-c1ncc2c(O)c(C(=O)NCC(=O)O)c(=O)n(C)c2n1 [Example 31, 2-(5-hydroxy-2-(2-methoxyphenyl)-8-methyl-7-oxo-7,8-dihydropyrido[2,3-d]pyrimidine-6-carboxamido)acetic acid]
5 | 5.3 | Cn1c(=O)c(C(=O)NCC(=O)O)c(O)c2cnc(-c3ccc(N4CCCCC4)cc3)nc21 [Example 32, 2-(5-hydroxy-8-methyl-7-oxo-2-(4-(piperidin-1-yl)phenyl)-7,8-dihydropyrido[2,3-d]pyrimidine-6-carboxamido)acetic acid]
6 | 6.4 | COc1ccc(-c2ncc3c(O)c(C(=O)NCC(=O)O)c(=O)n(C)c3n2)cc1 [Example 33, 2-(5-hydroxy-2-(4-methoxyphenyl)-8-methyl-7-oxo-7,8-dihydropyrido[2,3-d]pyrimidine-6-carboxamido)acetic acid]
7 | 10 | COc1cccc(-c2ncc3c(O)c(C(=O)NCC(=O)O)c(=O)n(C)c3n2)c1 [Example 34, 2-(5-hydroxy-2-(3-methoxyphenyl)-8-methyl-7-oxo-7,8-dihydropyrido[2,3-d]pyrimidine-6-carboxamido)acetic acid]
8 | 2.4 | Cn1c(=O)c(C(=O)NCC(=O)O)c(O)c2cnc(-c3cccc4ncccc34)nc21 [Example 35, 2-(5-hydroxy-8-methyl-7-oxo-2-(quinolin-5-yl)-7,8-dihydropyrido[2,3-d]pyrimidine-6-carboxamido)acetic acid]
9 | 7.4 | Cn1c(=O)c(C(=O)NCC(=O)O)c(O)c2cnc(-c3cc4ccccc4s3)nc21 [Example 36, 2-(2-(benzo[b]thiophen-2-yl)-5-hydroxy-8-methyl-7-oxo-7,8-dihydropyrido[2,3-d]pyrimidine-6-carboxamido)acetic acid]
10 | 8.8 | Cc1cccc(-c2ncc3c(O)c(C(=O)NCC(=O)O)c(=O)n(C)c3n2)c1 [Example 37, 2-(5-hydroxy-8-methyl-7-oxo-2-m-tolyl-7,8-dihydropyrido[2,3-d]pyrimidine-6-carboxamido)acetic acid]
11 | 2.5 | Cn1c(=O)c(C(=O)NCC(=O)O)c(O)c2cnc(-c3ccco3)nc21 [Example 38, 2-(2-(furan-2-yl)-5-hydroxy-8-methyl-7-oxo-7,8-dihydropyrido[2,3-d]pyrimidine-6-carboxamido)acetic acid]
12 | 7.8 | Cn1c(=O)c(C(=O)NCC(=O)O)c(O)c2cnc(-c3ccc(Cl)cc3)nc21 [Example 39, 2-(2-(4-chlorophenyl)-5-hydroxy-8-methyl-7-oxo-7,8-dihydropyrido[2,3-d]pyrimidine-6-carboxamido)acetic acid]
13 | 13 | Cn1c(=O)c(C(=O)NCC(=O)O)c(O)c2cnc(-c3csc4ccccc34)nc21 [Example 40, 2-(2-(benzo[b]thiophen-3-yl)-5-hydroxy-8-methyl-7-oxo-7,8-dihydropyrido[2,3-d]pyrimidine-6-carboxamido)acetic acid]
14 | 9.4 | Cn1c(=O)c(C(=O)NCC(=O)O)c(O)c2cnc(-c3ccc4ccccc4c3)nc21 [Example 41, 2-(5-hydroxy-8-methyl-2-(naphthalen-2-yl)-7-oxo-7,8-dihydropyrido[2,3-d]pyrimidine-6-carboxamido)acetic acid]
15 | 3.1 | Cn1c(=O)c(C(=O)NCC(=O)O)c(O)c2cnc(-c3cc4ccccc4[nH]3)nc21 [Example 42, 2-(5-hydroxy-2-(1H-indol-2-yl)-8-methyl-7-oxo-7,8-dihydropyrido[2,3-d]pyrimidine-6-carboxamido)acetic acid]
16 | 7.9 | Cn1c(=O)c(C(=O)NCC(=O)O)c(O)c2cnc(-c3cccc(Cl)c3)nc21 [Example 43, 2-(2-(3-chlorophenyl)-5-hydroxy-8-methyl-7-oxo-7,8-dihydropyrido[2,3-d]pyrimidine-6-carboxamido)acetic acid]
17 | 7.8 | Cn1ccc2cc(-c3ncc4c(O)c(C(=O)NCC(=O)O)c(=O)n(C)c4n3)ccc21 [Example 44, 2-(5-hydroxy-8-methyl-2-(1-methyl-1H-indol-5-yl)-7-oxo-7,8-dihydropyrido[2,3-d]pyrimidine-6-carboxamido)acetic acid]
18 | 2 | Cn1c(=O)c(C(=O)NCC(=O)O)c(O)c2cnc(-c3ccnc4ccccc34)nc21 [Example 45, 2-(5-hydroxy-8-methyl-7-oxo-2-(quinolin-4-yl)-7,8-dihydropyrido[2,3-d]pyrimidine-6-carboxamido)acetic acid]
19 | 2.3 | Cn1c(=O)c(C(=O)NCC(=O)O)c(O)c2cnc(-c3cccc4ccccc34)nc21 [Example 46, 2-(5-hydroxy-8-methyl-2-(naphthalen-1-yl)-7-oxo-7,8-dihydropyrido[2,3-d]pyrimidine-6-carboxamido)acetic acid]
20 | 6.7 | Cc1ccc(-c2ncc3c(O)c(C(=O)NCC(=O)O)c(=O)n(C)c3n2)cc1 [Example 47, 2-(5-hydroxy-8-methyl-7-oxo-2-p-tolyl-7,8-dihydropyrido[2,3-d]pyrimidine-6-carboxamido)acetic acid]
21 | 7.1 | Cn1c(=O)c(C(=O)NCC(=O)O)c(O)c2cnc(-c3ccc4occc4c3)nc21 [Example 48, 2-(2-(benzofuran-5-yl)-5-hydroxy-8-methyl-7-oxo-7,8-dihydropyrido[2,3-d]pyrimidine-6-carboxamido)acetic acid]
22 | 3.2 | Cn1c(=O)c(C(=O)NCC(=O)O)c(O)c2cnc(-c3cnc4ccccc4c3)nc21 [Example 49, 2-(5-hydroxy-8-methyl-7-oxo-2-(quinolin-3-yl)-7,8-dihydropyrido[2,3-d]pyrimidine-6-carboxamido)acetic acid]
23 | 3.6 | Cc1ccccc1-c1ncc2c(O)c(C(=O)NCC(=O)O)c(=O)n(C)c2n1 [Example 50, 2-(5-hydroxy-8-methyl-7-oxo-2-o-tolyl-7,8-dihydropyrido[2,3-d]pyrimidine-6-carboxamido)acetic acid]
24 | 9.4 | Cn1c(=O)c(C(=O)NCC(=O)O)c(O)c2cnc(-c3ccc4sccc4c3)nc21 [Example 51, 2-(2-(benzo[b]thiophen-5-yl)-5-hydroxy-8-methyl-7-oxo-7,8-dihydropyrido[2,3-d]pyrimidine-6-carboxamido)acetic acid]
25 | 4.1 | Cn1c(=O)c(C(=O)NCC(=O)O)c(O)c2cnc(-c3ccc(C#N)cc3)nc21 [Example 52, 2-(2-(4-cyanophenyl)-5-hydroxy-8-methyl-7-oxo-7,8-dihydropyrido[2,3-d]pyrimidine-6-carboxamido)acetic acid]
26 | 5 | Cn1c(=O)c(C(=O)NCC(=O)O)c(O)c2cnc(-c3cccc(N4CCOCC4)c3)nc21 [Example 53, 2-(5-hydroxy-8-methyl-2-(3-morpholinophenyl)-7-oxo-7,8-dihydropyrido[2,3-d]pyrimidine-6-carboxamido)acetic acid]
27 | 4 | Cn1c(=O)c(C(=O)NCC(=O)O)c(O)c2cnc(-c3ccsc3)nc21 [Example 54, 2-(5-hydroxy-8-methyl-7-oxo-2-(thiophen-3-yl)-7,8-dihydropyrido[2,3-d]pyrimidine-6-carboxamido)acetic acid]
28 | 4.45 | Cn1c(=O)c(C(=O)NCC(=O)O)c(O)c2cnc(-c3cccnc3)nc21 [Example 55, 2-(5-hydroxy-8-methyl-7-oxo-2-(pyridin-3-yl)-7,8-dihydropyrido[2,3-d]pyrimidine-6-carboxamido)acetic acid]
